According to patent publication US20240366770A1, “DEGRADATION OF BRUTON'S TYROSINE KINASE (BTK) BY CONJUGATION OF BTK INHIBITORS WITH E3 LIGASE LIGAND AND METHODS OF USE” (BeiGene Switzerland GmbH, priority 2021, published 2024):
pIC50: −log10 of the molar value.

What was measured:
BTK = target: T1, BTK (Homo sapiens, UniProt Q06187); assay: BTK degradation in TMD-8 cells (HTRF assay); type: cell-based; conditions: 6 h treatment, IC50 (DC50) of BTK degradation
T1 construct: High control=Cell group with added DMSO and without compound, indicating microplate readings without BTK degradation; endogenous in cells; host or cells: TMD-8
How it was run: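 BTK remaining after compound treatment was measured by HTRF (337 nm excitation, 665/620 nm emission) in lysates of TMD-8 cells. Cells were exposed for 6 h to eight 6-fold-spaced concentrations in 0.2% DMSO. DC50 values were obtained from a Hill-equation fit (top, bottom, slope) of % inhibition.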

HEK-293 cells = assay: HEK-293 cytotoxicity detection (CellTiter-Glo); type: cell-based; conditions: Homo sapiens; HEK-293 cells, 72 h incubation, CellTiter-Glo luminescence, IC50 of cell proliferation inhibition; read-out: HEK293
How it was run: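 Four-parameter logistic fitting of percent inhibition versus concentration gives IC50. Luminescent ATP read-out (CellTiter-Glo) after 72 h compound treatment of HEK-293 cells, 8 doses in 4-fold steps from a 5 mM 500× DMSO stock, final DMSO 0.2%.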

T1 sequence (Q06187 whole entry): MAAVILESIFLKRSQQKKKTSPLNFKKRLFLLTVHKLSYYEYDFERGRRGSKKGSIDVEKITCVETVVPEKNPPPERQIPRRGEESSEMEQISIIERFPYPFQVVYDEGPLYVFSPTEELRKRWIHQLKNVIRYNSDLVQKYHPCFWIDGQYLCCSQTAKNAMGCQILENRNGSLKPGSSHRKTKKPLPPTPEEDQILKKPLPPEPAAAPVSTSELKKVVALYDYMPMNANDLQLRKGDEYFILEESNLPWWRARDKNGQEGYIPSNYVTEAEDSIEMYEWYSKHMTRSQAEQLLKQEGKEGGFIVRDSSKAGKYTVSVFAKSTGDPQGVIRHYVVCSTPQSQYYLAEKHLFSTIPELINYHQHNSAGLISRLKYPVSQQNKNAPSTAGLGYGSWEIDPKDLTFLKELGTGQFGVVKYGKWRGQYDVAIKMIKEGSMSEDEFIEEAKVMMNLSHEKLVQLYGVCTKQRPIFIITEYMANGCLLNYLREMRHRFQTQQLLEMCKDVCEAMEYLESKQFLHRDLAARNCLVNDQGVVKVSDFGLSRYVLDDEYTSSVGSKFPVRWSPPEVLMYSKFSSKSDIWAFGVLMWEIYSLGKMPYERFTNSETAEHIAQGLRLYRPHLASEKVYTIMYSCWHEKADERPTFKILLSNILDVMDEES

With Cc1cc(-c2ncnc3[nH]c4cc(N5CCC6(CC5)CCN(C5CC(c7ccc(C8CCC(=O)NC8=O)cc7)C5)C6)ccc4c23)ccc1[C@@H](C)NC(=O)c1nc(C(C)(C)C)no1 (stereo in doubt) [Example 101, 3-(tert-butyl)-N—((R)-1-(4-(7-(2-(3-(4-((R)-2,6-dioxopiperidin-3-yl)phenyl)cyclobutyl)-2,8-diazaspiro[4.5]decan-8-yl)-9H-pyrimido[4,5-b]indol-4-yl)-2-methylphenyl)ethyl)-1,2,4-oxadiazole-5-carboxamide] the DC50 (BTK) was 1.52 nM and the pIC50 (HEK-293 cells) was 6.02.
For CN1CCN(CC2CCN(c3ncnc4[nH]c5cc(N6CCN(CC7CCN(c8ccc(N9CCC(=O)NC9=O)cc8)CC7)CC6)ccc5c34)CC2)C1=O [Example 81, 1-(4-(4-((4-(4-(4-((3-methyl-2-oxoimidazolidin-1-yl)methyl)piperidin-1-yl)-9H-pyrimido[4,5-b]indol-7-yl)piperazin-1-yl)methyl)piperidin-1-yl)phenyl)dihydropyrimidine-2,4(1H,3H)-dione], the DC50 (BTK) was over 2000 nM and the pIC50 (HEK-293 cells) was under 5.00.
COc1cc2c(cc1N1CCN(Cc3ccc4c(c3)C(C)(C)C(=O)N4C3CCC(=O)NC3=O)CC1)[nH]c1ncnc(-c3ccc([C@@H](C)NC(=O)c4nc(C(C)(C)C)no4)c(C)c3)c12 (stereo partly drawn) [Example 73, 3-(tert-butyl)-N-((1R)-1-(4-(7-(4-((1-(2,6-dioxopiperidin-3-yl)-3,3-dimethyl-2-oxoindolin-5-yl)methyl)piperazin-1-yl)-6-methoxy-9H-pyrimido[4,5-b]indol-4-yl)-2-methylphenyl)ethyl)-1,2,4-oxadiazole-5-carboxamide] was tested, and the DC50 (BTK) was 1.27 nM and the pIC50 (HEK-293 cells) was under 5.00.
Work on Cc1cc(-c2ncnc3[nH]c4cc(N5CCN([C@H]6C[C@H](c7ccc(N[C@H]8CCC(=O)NC8=O)cc7)C6)CC5)ccc4c23)ccc1[C@@H](C)NC(=O)c1nc(C2(C)CC2)no1 [Example 119, N—((R)-1-(4-(7-(4-((1S,3r)-3-(4-(((S)-2,6-dioxopiperidin-3-yl)amino)phenyl)cyclobutyl)piperazin-1-yl)-9H-pyrimido[4,5-b]indol-4-yl)-2-methylphenyl)ethyl)-3-(1-methylcyclopropyl)-1,2,4-oxadiazole-5-carboxamide] yielded a DC50 (BTK) of 2.51 nM and a pIC50 (HEK-293 cells) of under 5.00.
Work on Cc1cc(-c2ncnc3[nH]c4cc(C5CCN(C6CC(c7ccc([C@@H]8CCC(=O)NC8=O)cc7)C6)C5)ccc4c23)ccc1[C@@H](C)NC(=O)c1nc(C(C)(C)C)no1 (stereo partly drawn) [Example 21, 3-(tert-butyl)-N-((1R)-1-(4-(7-(1-(3-(4-((S)-2,6-dioxopiperidin-3-yl)phenyl)cyclobutyl)pyrrolidin-3-yl)-9H-pyrimido[4,5-b]indol-4-yl)-2-methylphenyl)ethyl)-1,2,4-oxadiazole-5-carboxamide] yielded a DC50 (BTK) of 0.609 nM and a pIC50 (HEK-293 cells) of 5.44.
Cc1cc(-c2ncnc3[nH]c4cc(C5CCN(CC6CCN(c7ccc(N8CCC(=O)NC8=O)cc7)CC6)CC5)cnc4c23)ccc1[C@@H](C)NC(=O)c1nc(C(C)(C)C)no1 [Example 38, (R)-3-(tert-butyl)-N-(1-(4-(7-(1-((1-(4-(2,4-dioxotetrahydropyrimidin-1(2H)-yl)phenyl)piperidin-4-yl)methyl)piperidin-4-yl)-9H-pyrido[2′,3′:4,5]pyrrolo[2,3-d]pyrimidin-4-yl)-2-methylphenyl)ethyl)-1,2,4-oxadiazole-5-carboxamide] showed a DC50 (BTK) of 0.395 nM and a pIC50 (HEK-293 cells) of 5.46.
With COc1cc2c(cc1N1CCN(CC3CCN(c4ccc(N5CCC(=O)NC5=O)cc4)CC3)CC1)[nH]c1ncnc(-c3cc(C)c([C@@H](C)NC(=O)c4nc(C5(C)CC5)no4)cc3F)c12 [Example 93, (R)—N-(1-(4-(7-(4-((1-(4-(2,4-dioxotetrahydropyrimidin-1(2H)-yl)phenyl)piperidin-4-yl)methyl)piperazin-1-yl)-6-methoxy-9H-pyrimido[4,5-b]indol-4-yl)-5-fluoro-2-methylphenyl)ethyl)-3-(1-methylcyclopropyl)-1,2,4-oxadiazole-5-carboxamide] the DC50 (BTK) was 2.51 nM and the pIC50 (HEK-293 cells) was under 5.00.
Cc1cc2c(cc1N1CCN(CC3CCN(c4ccc(N5CCC(=O)NC5=O)cc4)CC3)CC1)[nH]c1ncnc(-c3cc(CO)c([C@@H](C)NC(=O)c4nc(C(C)(C)C)no4)cc3F)c12 [Example 40, (R)-3-(tert-butyl)-N-(1-(4-(7-(4-((1-(4-(2,4-dioxotetrahydropyrimidin-1(2H)-yl)phenyl)piperidin-4-yl)methyl)piperazin-1-yl)-6-methyl-9H-pyrimido[4,5-b]indol-4-yl)-5-fluoro-2-(hydroxymethyl)phenyl)ethyl)-1,2,4-oxadiazole-5-carboxamide] gave a DC50 (BTK) of 2.12 nM and a pIC50 (HEK-293 cells) of under 5.00.
Cc1cc(-c2ncnc3[nH]c4cc(N5CCN(C6CC(c7ccc([C@@H]8CCC(=O)NC8=O)cc7)C6)CC5)ccc4c23)c(F)cc1[C@@H](C)NC(=O)c1nc(C2(C)CC2)no1 (stereo partly drawn) [Example 90, N—((R)-1-(4-(7-(4-(3-(4-((S)-2,6-dioxopiperidin-3-yl)phenyl)cyclobutyl)piperazin-1-yl)-9H-pyrimido[4,5-b]indol-4-yl)-5-fluoro-2-methylphenyl)ethyl)-3-(1-methylcyclopropyl)-1,2,4-oxadiazole-5-carboxamide] showed a DC50 (BTK) of 0.86 nM and a pIC50 (HEK-293 cells) of under 5.00.
Cc1c([C@@H](C)NC(=O)c2noc(C(C)(C)C)n2)ccc(-c2ncnc3[nH]c4cc(N5CCN(Cc6ccc7c(c6)n(C6CCC(=O)NC6=O)c(=O)n7C)CC5)ccc4c23)c1F (stereo partly drawn) [Example 78, 5-(tert-butyl)-N-((1R)-1-(4-(7-(4-((3-(2,6-dioxopiperidin-3-yl)-1-methyl-2-oxo-2,3-dihydro-1H-benzo[d]imidazol-5-yl)methyl)piperazin-1-yl)-9H-pyrimido[4,5-b]indol-4-yl)-3-fluoro-2-methylphenyl)ethyl)-1,2,4-oxadiazole-3-carboxamide] showed a DC50 (BTK) of over 2000 nM and a pIC50 (HEK-293 cells) of under 5.00.
Cc1cc(-c2ncnc3[nH]c4cc(N5CCC6(CC5)CCN([C@H]5C[C@@H](c7ccc([C@H]8CCC(=O)NC8=O)cc7)C5)CC6)ccc4c23)ccc1[C@@H](C)NC(=O)c1nc(C(C)(C)C)no1 [Example 113, 3-(tert-butyl)-N—((R)-1-(4-(7-(9-((1S,3s)-3-(4-((R)-2,6-dioxopiperidin-3-yl)phenyl)cyclobutyl)-3,9-diazaspiro[5.5]undecan-3-yl)-9H-pyrimido[4,5-b]indol-4-yl)-2-methylphenyl)ethyl)-1,2,4-oxadiazole-5-carboxamide] was tested, and the DC50 (BTK) was 3.46 nM and the pIC50 (HEK-293 cells) was 5.95.
With COc1cc2c(cc1N1CCN(C3CC(c4ccc([C@H]5CCC(=O)NC5=O)cc4)C3)CC1)[nH]c1ncnc(-c3ccc([C@@H](C)NC(=O)c4nc(C(C)(C)C)no4)c(C)c3)c12 (stereo partly drawn) [Example 50, 3-(tert-butyl)-N—((R)-1-(4-(7-(4-(3-(4-((R)-2,6-dioxopiperidin-3-yl)phenyl)cyclobutyl)piperazin-1-yl)-6-methoxy-9H-pyrimido[4,5-b]indol-4-yl)-2-methylphenyl)ethyl)-1,2,4-oxadiazole-5-carboxamide] the DC50 (BTK) was 0.171 nM and the pIC50 (HEK-293 cells) was under 5.00.
Work on Cc1cc(-c2ncnc3[nH]c4cc(N5CCN(C6CN(C7CN(c8ccc9c(c8)C(=O)N(C8CCC(=O)NC8=O)C9=O)C7)C6)CC5)ccc4c23)ccc1[C@@H](C)NC(=O)c1nc(C2(C)CC2)no1 (stereo partly drawn) [Example 121, N-((1R)-1-(4-(7-(4-(1′-(2-(2,6-dioxopiperidin-3-yl)-1,3-dioxoisoindolin-5-yl)-[1,3′-biazetidin]-3-yl)piperazin-1-yl)-9H-pyrimido[4,5-b]indol-4-yl)-2-methylphenyl)ethyl)-3-(1-methylcyclopropyl)-1,2,4-oxadiazole-5-carboxamide] yielded a DC50 (BTK) of 1.58 nM and a pIC50 (HEK-293 cells) of under 5.00.
For Cc1cc2c(cc1N1CCN(CC3CCN(c4ccc(N5CCC(=O)NC5=O)cc4)CC3)CC1)[nH]c1ncnc(-c3ccc([C@@H](C)NC(=O)c4noc(C(C)(C)C)n4)c(C)c3F)c12 [Example 45, (R)-5-(tert-butyl)-N-(1-(4-(7-(4-((1-(4-(2,4-dioxotetrahydropyrimidin-1(2H)-yl)phenyl)piperidin-4-yl)methyl)piperazin-1-yl)-6-methyl-9H-pyrimido[4,5-b]indol-4-yl)-3-fluoro-2-methylphenyl)ethyl)-1,2,4-oxadiazole-3-carboxamide], the DC50 (BTK) was 1.05 nM and the pIC50 (HEK-293 cells) was under 5.00.
Work on Cc1cc(-c2ncnc3[nH]c4cc(N5CCC6(CC5)CCN([C@H]5C[C@H](c7ccc([C@@H]8CCC(=O)NC8=O)cc7)C5)CC6)ccc4c23)ccc1[C@@H](C)NC(=O)c1nc(C(C)(C)C)no1 [Example 110, 3-(tert-butyl)-N—((R)-1-(4-(7-(9-((1S,3r)-3-(4-((S)-2,6-dioxopiperidin-3-yl)phenyl)cyclobutyl)-3,9-diazaspiro[5.5]undecan-3-yl)-9H-pyrimido[4,5-b]indol-4-yl)-2-methylphenyl)ethyl)-1,2,4-oxadiazole-5-carboxamide] yielded a DC50 (BTK) of 1.25 nM and a pIC50 (HEK-293 cells) of 5.70.
Cc1c([C@@H](C)NC(=O)c2noc(C(C)(C)C)n2)ccc(-c2ncnc3[nH]c4cc(N5CCN(CC6CCN(c7ccc(N8CCC(=O)NC8=O)cc7)CC6)CC5)ccc4c23)c1F [Example 27, (R)-5-(tert-butyl)-N-(1-(4-(7-(4-((1-(4-(2,4-dioxotetrahydropyrimidin-1(2H)-yl)phenyl)piperidin-4-yl)methyl)piperazin-1-yl)-9H-pyrimido[4,5-b]indol-4-yl)-3-fluoro-2-methylphenyl)ethyl)-1,2,4-oxadiazole-3-carboxamide] gave a DC50 (BTK) of 0.299 nM and a pIC50 (HEK-293 cells) of under 5.00.
